# Data from ChEMBL document CHEMBL5518186, “Discovery of the cereblon-recruiting tubulin PROTACs effective in overcoming Taxol resistance in vitro and in vivo” (Eur J Med Chem, 2024).
# pIC50: −log10 of the molar value. The source made the active and inactive calls. The calls are words filed in the database; no cut-off is given here.
# Experiments:
# A549 [1] = experiment: Induction of cell cycle arrest in human A549 cells assessed as accumulation of cells at G0/G1 phase at 0.002 uM incubated for 24 hrs by PI staining based flow cytometry analysis (reference value: 66.75%); assay type: functional
# [2] = target: T1, Protein cereblon-alpha tubulin (Homo sapiens) (UniProt P0DPH7+P68366+Q71U36+P68363+Q9BQE3+Q6PEY2+A6NHL2+Q9NY65+Q96SW2); experiment: Protac activity at CRBN/alpha-tubulin in human A549 cells assessed as reduction in alpha-tubulin level at 0.25 uM pretreated with MG-132 followed by compound addition and measured after 24 hrs by immunoblotting analysis; assay type: cell-based
# [3] = target: Protein cereblon/Tubulin beta; experiment: (§1) Protac activity at CRBN/beta-tubulin in human A549 cells assessed as reduction in beta-tubulin level incubated for 48 hrs by immunoblotting analysis; assay type: cell-based
# [4] = target: T2, Protein cereblon/Tubulin beta (Homo sapiens) (UniProt P68371+Q9H4B7+Q13509+P04350+Q3ZCM7+P07437+Q13885+Q9BVA1+Q9BUF5+Q96SW2+A6NNZ2); experiment: as §1; assay type: cell-based
# A549 [5] = experiment: Induction of cell cycle arrest in human A549 cells assessed as accumulation of cells at S phase at 0.05 uM incubated for 24 hrs by PI staining based flow cytometry analysis (reference value: 1.39%); assay type: functional
# A549 [6] = experiment: Induction of apoptosis in human A549 cells assessed as increase in apoptotic rate at 0.05 uM incubated for 48 hrs by Annexin V-FITC/PI staining based flow cytometry analysis (reference value: 1.3%); assay type: functional
# A549/TR [7] = experiment: Induction of apoptosis in human A549/Taxol cells at 0.05 uM incubated for 48 hrs by Annexin V-FITC/PI staining based flow cytometry analysis; assay type: functional
# A549/TR [8] = experiment: Induction of cell cycle arrest in human A549/Taxol cells assessed as accumulation of cells at G2/M phase at 0.01 uM incubated for 24 hrs by PI staining based flow cytometry analysis (reference value: 17.02%); assay type: functional
# [9] = target: T1, Protein cereblon-alpha tubulin (Homo sapiens); experiment: Protac activity at CRBN/alpha-tubulin in human HeLa cells assessed as reduction in alpha-tubulin level at 10 to 1000 nM incubated for 48 hrs by immunoblotting analysis; assay type: cell-based; details: dose 10-1000 nM
# [10] = target: T2, Protein cereblon/Tubulin beta (Homo sapiens); experiment: Protac activity at CRBN/beta-tubulin in human HeLa cells assessed as reduction in beta-tubulin level at 10 to 1000 nM incubated for 48 hrs by immunoblotting analysis; assay type: cell-based; details: dose 10-1000 nM
# HepG2 [11] = experiment: Inhibition of cell proliferation in human HepG2 cells; assay type: functional, cell-based
# A549 [12] = experiment: Antiproliferative activity against human A549 cells incubated for 72 hrs; assay type: functional, cell-based; details: A549, 72 h
# [13] = target: T1, Protein cereblon-alpha tubulin (Homo sapiens); experiment: Protac activity at CRBN/alpha-tubulin in human MCF7 cells assessed as reduction in alpha-tubulin level at 10 to 1000 nM incubated for 48 hrs by immunoblotting analysis; assay type: cell-based; details: dose 10-1000 nM
# [14] = target: T2, Protein cereblon/Tubulin beta (Homo sapiens); experiment: Protac activity at CRBN/beta-tubulin in human A549/Taxol cells assessed as reduction in beta-tubulin level at 0.25 uM pretreated with pomalidomide for 2 hrs followed by compound addition and measured after 48 hrs by immunoblotting analysis; assay type: cell-based
# MCF7 = experiment: Inhibition of cell growth in human MCF7 cells incubated for 72 hrs by SRB method; assay type: functional, cell-based; details: MCF7, 72 h
# [15] = target: T2, Protein cereblon/Tubulin beta (Homo sapiens); experiment: Protac activity at CRBN/beta-tubulin in human MGC-803 cells assessed as reduction in beta-tubulin level at 10 to 1000 nM incubated for 48 hrs by immunoblotting analysis; assay type: cell-based; details: dose 10-1000 nM
# A549 [16] = experiment: Inhibition of colony formation in human A549 cells incubated for 24 hrs followed by media replacement at every 3 days for 14 days by crystal violet staining based assay; assay type: functional, cell-based; details: dose 2-50 nM, time 14.0 day
# [17] = target: T1, Protein cereblon-alpha tubulin (Homo sapiens); experiment: Protac activity at CRBN/alpha-tubulin in human A549 cells assessed as reduction in alpha-tubulin level at 0.25 uM pretreated with CA-4 for 2 hrs followed by compound addition and measured after 24 hrs by immunoblotting analysis; assay type: cell-based
# A549 [18] = experiment: Induction of cell cycle arrest in human A549 cells assessed as accumulation of cells at G2/M phase at 0.01 uM incubated for 24 hrs by PI staining based flow cytometry analysis (reference value: 31.86%); assay type: functional
# HUVEC = experiment: Antiangiogenic activity in HUVECs assessed as reduction in tube area at 2.5 nM incubated for 6 to 8 hrs by inverted microscopic analysis; assay type: functional, cell-based; details: Homo sapiens, time 6-8 hrs
# A549/TR [19] = experiment: Antitumor activity against human A549/Taxol cells xenografted in nude mouse assessed as tumor growth inhibition at 15 mg/kg, ip administered once every 2 days for 23 days by Vernier caliper method; assay type: functional; details: 552 h, time 23 day, read-out: TGI
# [20] = Resistance index, ratio of IC50 for human A549/Taxol cells to IC50 for human A549 cells; assay type: functional
# [21] = target: Protein cereblon-alpha tubulin; experiment: (§2) Protac activity at CRBN/alpha-tubulin in human A549/Taxol cells assessed as reduction in alpha-tubulin level incubated for 48 hrs by immunoblotting analysis; assay type: cell-based
# [22] = target: T1, Protein cereblon-alpha tubulin (Homo sapiens); experiment: as §2; assay type: cell-based
# [23] = target: Protein cereblon/Tubulin beta-3 chain (Homo sapiens, UniProt Q13509+Q96SW2); experiment: Protac activity at CRBN/beta3-tubulin in human HepG2 cells assessed as reduction in beta3-tubulin level at 10 to 1000 nM incubated for 48 hrs by immunoblotting analysis; assay type: cell-based; details: dose 10-1000 nM
# Protein cereblon/Tubulin beta-3 chain, sequence (Q13509 whole entry, looked up): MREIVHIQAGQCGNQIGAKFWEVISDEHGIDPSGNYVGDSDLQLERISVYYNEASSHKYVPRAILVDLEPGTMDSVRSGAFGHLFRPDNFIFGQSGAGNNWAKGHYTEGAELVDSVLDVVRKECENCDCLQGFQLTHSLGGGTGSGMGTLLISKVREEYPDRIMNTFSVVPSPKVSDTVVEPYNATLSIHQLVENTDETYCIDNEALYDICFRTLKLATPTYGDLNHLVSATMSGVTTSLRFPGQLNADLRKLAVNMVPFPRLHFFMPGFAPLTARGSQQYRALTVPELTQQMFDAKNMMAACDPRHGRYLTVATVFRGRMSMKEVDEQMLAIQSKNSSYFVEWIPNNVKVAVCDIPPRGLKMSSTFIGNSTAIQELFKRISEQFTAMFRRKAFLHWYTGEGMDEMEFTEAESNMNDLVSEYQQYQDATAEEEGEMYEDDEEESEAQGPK
# Protein cereblon/Tubulin beta-3 chain, sequence (Q96SW2 whole entry, looked up): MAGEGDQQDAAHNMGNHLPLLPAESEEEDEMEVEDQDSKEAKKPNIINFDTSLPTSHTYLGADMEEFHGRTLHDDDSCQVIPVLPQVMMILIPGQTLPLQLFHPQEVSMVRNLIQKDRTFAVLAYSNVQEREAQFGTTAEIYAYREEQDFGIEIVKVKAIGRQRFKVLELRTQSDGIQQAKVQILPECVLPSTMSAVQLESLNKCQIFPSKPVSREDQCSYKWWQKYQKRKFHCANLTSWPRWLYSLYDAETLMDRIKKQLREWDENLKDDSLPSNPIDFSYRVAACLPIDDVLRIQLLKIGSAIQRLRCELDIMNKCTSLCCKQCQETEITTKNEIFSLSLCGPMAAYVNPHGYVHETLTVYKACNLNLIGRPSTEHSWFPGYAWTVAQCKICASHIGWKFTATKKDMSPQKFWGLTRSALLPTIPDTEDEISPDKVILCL
# A549 [24] = experiment: Induction of apoptosis in human A549 cells assessed as increase in apoptotic rate at 0.01 uM incubated for 48 hrs by Annexin V-FITC/PI staining based flow cytometry analysis (reference value: 1.3%); assay type: functional
# [25] = target: T2, Protein cereblon/Tubulin beta (Homo sapiens); experiment: Protac activity at CRBN/beta-tubulin in human A549/Taxol cells assessed as reduction in beta-tubulin level at 0.25 uM pretreated with CA-4 for 2 hrs followed by compound addition and measured after 48 hrs by immunoblotting analysis; assay type: cell-based
# [26] = target: T2, Protein cereblon/Tubulin beta (Homo sapiens); experiment: Protac activity at CRBN/beta-tubulin in human A549 cells assessed as reduction in beta-tubulin level at 0.25 uM pretreated for 48 hrs followed by compound washout and measured upto 12 hrs by immunoblotting analysis; assay type: cell-based
# A549/TR [27] = experiment: Induction of cell cycle arrest in human A549/Taxol cells assessed as accumulation of cells at G0/G1 phase at 0.05 uM incubated for 24 hrs by PI staining based flow cytometry analysis (reference value: 77.86%); assay type: functional
# [28] = target: T1, Protein cereblon-alpha tubulin (Homo sapiens); experiment: Protac activity at CRBN/alpha-tubulin in human A549/Taxol cells assessed as reduction in alpha-tubulin level at 0.25 uM pretreated with MG-132 followed by compound addition and measured after 48 hrs by immunoblotting analysis; assay type: cell-based
# [29] = target: Protein cereblon/Tubulin beta; experiment: (§3) Protac activity at CRBN/beta-tubulin in human A549/Taxol cells assessed as reduction in beta-tubulin level incubated for 48 hrs by immunoblotting analysis; assay type: cell-based
# [30] = target: T2, Protein cereblon/Tubulin beta (Homo sapiens); experiment: as §3; assay type: cell-based
# A549 [31] = experiment: Induction of cell cycle arrest in human A549 cells assessed as accumulation of cells at G0/G1 phase at 0.01 uM incubated for 24 hrs by PI staining based flow cytometry analysis (reference value: 66.75%); assay type: functional
# HepG2 [32] = experiment: Antiproliferative activity against human HepG2 cells incubated for 72 hrs; assay type: functional, cell-based; details: HepG2, 72 h
# [33] = Inhibition of cell growth in human MCF7/Taxol cells incubated for 72 hrs by SRB method; assay type: functional, cell-based
# HepG2 [34] = experiment: Inhibition of cell migration in human HepG2 cells; assay type: functional, cell-based
structure (smiles),measurement,setting,value
COc1ccc(/C=C\c2cc(OC)c(OC)c(OC)c2)cc1OC(=O)CCCNc1cccc2c1C(=O)N(C1CCC(=O)NC1=O)C2=O (stereo unspecified),Activity,A549 [1],57.32%
same,Activity,[2],inactive
same,DC50,[3],856 nM
same,Activity,[4],Dose-Dependent Effect
same,Activity,A549 [5],16.44%
same,Activity,A549 [6],48.2%
same,Activity,A549/TR [7],36.2%
same,Activity,A549/TR [8],63.83%
same,Activity,[9],Active
same,Activity,[10],Active
same,inhibition,HepG2 [11],Active
same,pIC50,A549 [12],8.00
same,Activity,[13],Active
same,Activity,[14],inactive
same,pIC50,MCF7,7.92
same,Activity,[15],Active
same,inhibition,A549 [16],Dose-Dependent Effect
same,Activity,[17],inactive
same,Activity,A549 [18],68.36%
same,Activity,HUVEC,Active
same,inhibition in vivo at 15 mg/kg,A549/TR [19],65.8%
same,Ratio IC50,[20],0.5
same,DC50,[21],32 nM
same,Activity,[22],Dose-Dependent Effect
same,Activity,[23],Active
same,Activity,A549 [24],23.1%
same,Activity,[25],inactive
same,Activity,[26],Active
same,Activity,A549/TR [27],30%
same,Activity,[28],inactive
same,DC50,[29],972 nM
same,Activity,[30],Dose-Dependent Effect
same,Activity,A549 [31],16.29%
same,pIC50,HepG2 [32],8.40
same,pIC50,[33],8.22
same,inhibition,HepG2 [34],Dose-Dependent Effect
